The values that follow come from US8883789B2, “Piperazine derivatives and their use as positive allosteric modulators of mGluR5 receptors” (Boehringer Ingelheim International GmbH, priority 2011, dated 2014).

The structures appear in SMILES notation.

In the experiment the target is T1, human recombinant mGluR5 (Homo sapiens, UniProt P41594).
T1 construct: expressed in transfected cells; hygromycin and geneticin selection
T1 sequence (P41594 21-1212): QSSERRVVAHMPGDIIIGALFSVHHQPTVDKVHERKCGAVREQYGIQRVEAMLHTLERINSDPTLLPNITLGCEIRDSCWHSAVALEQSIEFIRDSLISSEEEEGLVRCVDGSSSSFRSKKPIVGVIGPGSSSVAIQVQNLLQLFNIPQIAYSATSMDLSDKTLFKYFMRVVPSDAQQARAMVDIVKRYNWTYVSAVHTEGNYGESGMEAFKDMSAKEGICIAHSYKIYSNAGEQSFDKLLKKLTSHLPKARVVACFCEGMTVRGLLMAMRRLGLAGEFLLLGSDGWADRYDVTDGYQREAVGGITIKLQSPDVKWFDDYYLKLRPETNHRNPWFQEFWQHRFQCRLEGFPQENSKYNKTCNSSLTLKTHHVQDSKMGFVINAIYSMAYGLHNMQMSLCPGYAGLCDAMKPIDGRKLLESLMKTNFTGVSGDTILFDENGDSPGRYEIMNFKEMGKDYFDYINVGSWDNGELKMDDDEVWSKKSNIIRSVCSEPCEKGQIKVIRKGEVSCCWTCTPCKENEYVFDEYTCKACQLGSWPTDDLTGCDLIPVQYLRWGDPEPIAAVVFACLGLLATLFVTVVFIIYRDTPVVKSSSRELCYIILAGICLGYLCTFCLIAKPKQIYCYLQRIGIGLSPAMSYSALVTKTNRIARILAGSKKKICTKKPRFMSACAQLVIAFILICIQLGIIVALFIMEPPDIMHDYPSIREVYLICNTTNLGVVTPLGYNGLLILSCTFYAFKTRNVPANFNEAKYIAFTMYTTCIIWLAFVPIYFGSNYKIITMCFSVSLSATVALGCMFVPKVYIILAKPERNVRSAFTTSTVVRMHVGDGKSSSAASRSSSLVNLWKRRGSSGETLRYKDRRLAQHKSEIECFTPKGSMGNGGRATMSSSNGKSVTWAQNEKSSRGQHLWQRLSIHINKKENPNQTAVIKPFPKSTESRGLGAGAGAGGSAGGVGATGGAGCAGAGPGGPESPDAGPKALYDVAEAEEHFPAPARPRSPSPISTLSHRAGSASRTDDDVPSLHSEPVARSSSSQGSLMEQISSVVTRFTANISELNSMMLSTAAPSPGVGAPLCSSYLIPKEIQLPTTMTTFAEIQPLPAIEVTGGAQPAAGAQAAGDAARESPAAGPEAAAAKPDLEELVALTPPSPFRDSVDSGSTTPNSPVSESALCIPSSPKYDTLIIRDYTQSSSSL
Put plainly: positive modulation of mGluR5, calcium based FLIPR assay. Particulars: HEK 293 cell line expressing human recombinant mGluR5; Ca2+ peak height after glutamate at approximately 5% basal stimulation; nonlinear regression. Here is the method:
The positive modulation of mGluR5 is measured in a HEK 293 cell line expressing human recombinant mGluR5 and is detected with calcium based FLIPR assay. The cells are cultured with DMEM supplemented with 10% FCS, 2 μg/mL tetracycline, 100 μg/mL hygromycin and 500 μg/mL geneticin. The cell culture media is exchanged for tetracycline-free cell culture media 3-7 days before the assay. One day before the assay the cell culture medium is exchanged to DMEM without glutamine and phenol red and supplemented with 10% FCS, 100 μg/mL hygromycin and 500 μg/mL geneticin. On the assay day, the medium of the subconfluent cultures is removed and the cells are detached by addition of 2.5 ml EDTA (0.02%) per 175 cm2 culture flask for 1 minute. The cells are resuspend in Ringer solution (140 mM NaCl, 5 mM KCl, 2.5 mM CaCl2, 1.5 mM MgCl2, 5 mM Glucose, 10 mM Hepes; adjusted to pH 7.4 with NaOH), pooled and Ringer solution added to adjust the volume to 50 mL. The cell suspension is centrifuged for […] at 1500 U/min (425 g). The supernatant is removed and the cells washed a second time with 50 ml fresh Ringer solution and centrifuged again as before. The supernatant is again removed and the pellet resuspended in Ringer solution to 1,000,000 cells/ml (1×10^6 cells/mL). The cells are plated onto BD BioCoat Poly-D-Lysine 384 well plates (20.000 cells/well; 20 μl/well). The lid covered plates are then incubated until use at 37° C./10% CO2. For dye loading, 20 μl of Calcium-4 assay kit solution (prepared according to the manufacturer's description in Ringer solution) are added to the cells and the plates are incubated for 80 min 37° C. and then 10 min at room temperature.
Controls, Compound Dilution and Assay Execution:
Each assay plate contained wells with “high” and “low” controls:
Low controls 1% DMSO/ringer solution+basal glutamate activation (defined as 100% CTL).
High controls 10 μM CDPPB+basal glutamate activation (defined as 200% CTL).
Test compounds are dissolved and diluted in DMSO to 100-fold the desired concentrations. In a second step, the compounds are diluted in Ringer solution such that the compounds are 4-fold more concentrated than the desired final assay concentration. The final DMSO concentration was 1%.
20 μl of each compound solution are then transferred to the assay plate and the Ca2+ kinetic is measured to determine any intrinsic compound activity. After 5 min incubation in the FLIPR device, the second stimulation with 20 μl of glutamate in Ringer solution (glutamate concentration adjusted to approximately 5% basal stimulation of the maximal possible glutamate effect) is added and the kinetic Ca2+ response of the wells was measured for the modulation effect.
The peak height of the Ca release related fluorescence signal (9-66) is used for the EC50.
The EC50 of the modulation is calculated over a nonlinear regression with GraphPad Prism (Table 1).
As a reminder, the EC50 is the concentration at which the effect is half-maximal. Take `COc1ccc2c(C)c(C(=O)N3CCN(C(=O)c4ncn(-c5cccc(Cl)c5)n4)C(C)(C)C3)oc2c1` [Example 47]: the EC50 was 184 nM.
Under `COc1nc(C(=O)N2CCN(C(=O)c3nnn(-c4cccc(F)c4)n3)C(C)(C)C2)cc2ccccc12` [Example 207, [2-(3-Fluoro-phenyl)-2H-tetrazol-5-yl]-[4-(1-methoxy-isoquinoline-3-carbonyl)-2,2-dimethyl-piperazin-1-yl]-methanone] stands 34 nM; under `CC(C)Oc1cccc(C(=O)N2CCN(C(=O)c3ncn(-c4ccccc4)n3)C(C)(C)C2)c1` [Example 126], 91 nM.
In the case of `Cc1c(C(=O)N2CCN(C(=O)c3ncn(-c4cccc(Cl)c4)n3)C(C)(C)C2)oc2ccc(F)cc12` [Example 41], the 50% effective concentration (EC50) is 200 nM.
As to `CC1CN(C(=O)c2cc3c(Cl)cccc3s2)CCN1C(=O)c1ncn(-c2cccc(Cl)c2)n1` (stereo not drawn) [Example 268], the EC50 worked out at 327 nM.
Regarding `CC1CN(C(=O)c2cn(C)c3ccccc23)CCN1C(=O)c1ncn(-c2cccc(Cl)c2)n1` (stereo not drawn) [Example 276], the EC50 stood at 264 nM.
Consider `CC(C)COc1cccc(C(=O)N2CCN(C(=O)c3ncn(-c4ccccc4)n3)C(C)(C)C2)c1` [Example 129], for which the EC50 stood at 88 nM.
As for `CCC1CN(C(=O)c2ncn(-c3cccc(F)c3)n2)CCN1C(=O)c1cccc(OC)n1` (stereo not drawn) [Example 259], the EC50 stood at 231 nM.
Turning to `Cc1cc(-n2cnc(C(=O)N3CCN(C(=O)c4c(C)oc5ccccc45)CC3(C)C)n2)ccc1F` [Example 163], the EC50 was found to be 1510 nM.
Under `COCC1(C)CN(C(=O)c2cccc(OC)n2)CCN1C(=O)c1ncn(-c2cccc(C)c2)n1` (stereo not drawn) [Example 310] stands 802 nM; under `COc1cc(Cl)cc(C(=O)N2CCN(C(=O)c3ncn(-c4ccccc4)n3)C(C)(C)C2)c1` [Example 121], 123 nM.
Consider `COc1cccc(C(=O)N2CCN(C(=O)c3ncn(-c4ccccc4)n3)C(C)C2)n1` (stereo not drawn) [Example 298], for which the EC50 is 619 nM.
Turning to `CC1(C)CN(C(=O)c2cccc(C3CCC3)c2)CCN1C(=O)c1ncn(-c2ccccc2)n1` [Example 151], the EC50 was found to be 16 nM.
For the molecule `COCc1c(C(=O)N2CCN(C(=O)c3ncn(-c4cccc(Cl)c4)n3)C(C)C2)oc2ccccc12` (stereo not drawn) [Example 274], the EC50 was found to be 810 nM.
Turning to `CC1CN(C(=O)c2ncn(-c3cccc(Cl)c3)n2)CCN1C(=O)c1cccc(-c2ccn(C)n2)c1` (stereo not drawn) [Example 225], the concentration giving a half-maximal response (EC50) amounted to 498 nM.
As for `COc1cccc2c(C)c(C(=O)N3CCN(C(=O)c4ncn(-c5cccc(Cl)c5)n4)C(C)(C)C3)oc12` [Example 68], the EC50 was found to be 54 nM.
Turning to `Cc1c(C(=O)N2CCN(C(=O)c3ncn(-c4cccc(Cl)c4)n3)CC2C)oc2c(F)cccc12` (stereo not drawn) [Example 232], the EC50 is 1160 nM.
Take `CC1(C)CN(C(=O)c2cccc(C3CC3)n2)CCN1C(=O)c1ncn(-c2cccc(Cl)c2)n1` [Example 16]: the EC50 came to 41 nM.
Take `CC1CN(C(=O)c2cccc(-c3ccn(C)n3)c2)CCN1C(=O)c1ncn(-c2cccc(Cl)c2)n1` (stereo not drawn) [Example 269]: the EC50 was 447 nM.
Under `CCCOc1cccc(C(=O)N2CCN(C(=O)c3ncn(-c4cccc(Cl)c4)n3)C(C)C2)c1` (stereo not drawn) [Example 285] stands 746 nM.
The same measure for `Cc1cccc(-n2cnc(C(=O)N3CCN(C(=O)c4cc(Cl)c5c(c4)OCCO5)CC3(C)C)n2)c1` [Example 9]: 53 nM.
As for `COc1cccc(C(=O)N2CCN(C(=O)c3ncn(-c4cccc(F)c4)n3)C3(CCC3)C2)n1` [Example 307], the EC50 stood at 754 nM.
Under `CC1(C)CN(C(=O)c2cc(Br)c(Br)o2)CCN1C(=O)c1ncn(-c2ccccc2)n1` [Example 105] stands 64 nM; under `COc1ccc2oc(C)c(C(=O)N3CCN(C(=O)c4ncn(-c5cccc(F)c5)n4)C(C)C3)c2c1` (stereo not drawn) [Example 287], 242 nM.
For the molecule `CCCOc1nc(C(=O)N2CCN(C(=O)c3ncn(-c4ccccc4)n3)C(C)(C)C2)cc2ccccc12` [Example 99], the EC50 was 28 nM.
Under `COc1cccc(C(=O)N2CCN(C(=O)c3ncn(-c4cccc(Cl)c4)n3)C[C@@H]2C)n1` [Example 252, (S)-{4-[1-(3-Chloro-phenyl)-1H-[1,2,4]triazole-3-carbonyl]-2-methyl-piperazin-1-yl}-(6-methoxy-pyridin-2-yl)-methanone] stands 278 nM; under `CC1(C)CN(C(=O)c2ccc(F)c(Cl)c2)CCN1C(=O)c1ncn(-c2ccccc2)n1` [Example 149], 353 nM.
For `CC1(C)CN(C(=O)c2cccc(Cl)c2)CCN1C(=O)c1ncn(-c2cc(F)ccc2F)n1` [Example 195], the EC50 was 1000 nM.
`COc1ccc2c(C)c(C(=O)N3CCN(C(=O)c4ncn(-c5cccc(Cl)c5)n4)C(C)C3)oc2c1` (stereo not drawn) [Example 278]: the EC50 turned out to be 929 nM.
Take `C[C@@H]1CN(C(=O)c2ncn(-c3cccc(Cl)c3)n2)CCN1C(=O)c1cc(Br)c(Br)o1` [Example 249]: the EC50 was 198 nM.
On to `Cc1c(C(=O)N2CCN(C(=O)c3ncn(-c4cccc(Cl)c4)n3)C(C)(C)C2)oc2c(C)cccc12` [Example 66], for which the EC50 was determined as 104 nM.
Turning to `CCCOc1cccc(C(=O)N2CCN(C(=O)c3ncn(-c4cccc(Cl)c4)n3)CC2C)c1` (stereo not drawn) [Example 219], the EC50 was 356 nM.
For the molecule `CCn1cc(-c2cccc(C(=O)N3CCN(C(=O)c4ncn(-c5cccc(Cl)c5)n4)C(C)(C)C3)n2)cn1` [Example 92], the EC50 stood at 119 nM.
On to `O=C(c1cccc(Cl)c1)N1CCN(C(=O)c2ncn(-c3cccc(Cl)c3)n2)C2(CCCC2)C1` [Example 308], for which the 50% effective concentration (EC50) turned out to be 367 nM.
The same measure for `Cc1oc2ccccc2c1C(=O)N1CCN(C(=O)c2ncn(-c3cccc(Cl)c3)n2)C(C)C1` (stereo not drawn) [Example 275]: 170 nM.
For the molecule `COc1cc(C(=O)N2CCN(C(=O)c3ncn(-c4cccc(C)c4)n3)CC2C)ccc1C` (stereo not drawn) [Example 235], the EC50 worked out at 314 nM.
`CC1CN(C(=O)c2ncn(-c3cccc(Cl)c3)n2)CCN1C(=O)c1ccc(Cl)s1` (stereo not drawn) [Example 231]: the EC50 was determined as 1780 nM.
As to `CC1CN(C(=O)c2ncn(-c3cccc(Cl)c3)n2)CCN1C(=O)c1cc2ccccc2o1` (stereo not drawn) [Example 214], the EC50 came out at 428 nM.
As to `CC1(C)CN(C(=O)c2cccc(Cl)c2)CCN1C(=O)c1nnn(-c2ccccc2)n1` [Example 187], the EC50 was determined as 24 nM.
Turning to `COc1nc(C(=O)N2CCN(C(=O)c3ncn(-c4cccc(Cl)c4)n3)C(C)(C)C2)cc2ccccc12` [Example 42], the EC50 came out at 88 nM.
For `COc1cccc(C(=O)N2C[C@@H](C)N(C(=O)c3ncn(-c4cccc(F)c4)n3)[C@@H](C)C2)n1` [Example 303], the EC50 turned out to be 215 nM.
As to `COc1cccc(C(=O)N2CCN(C(=O)c3ncn(-c4cccc(C)c4)n3)C(C)(C)C2)n1` [Example 7, [4-(6-Methoxy-pyridine-2-carbonyl)-2,2-dimethyl-piperazin-1-yl]-[1-m-tolyl-1H-[1,2,4]triazol-3yl]-methanone], the EC50 is 50 nM.
Under `CC1(C)CN(C(=O)c2cccc(C3CC3)n2)CCN1C(=O)c1ncn(-c2cccc(F)c2)n1` [Example 184] stands 33 nM.
`COc1ccc(C(=O)N2CCN(C(=O)c3ncn(-c4ccccc4)n3)C(C)(C)C2)o1` [Example 132]: the EC50 was found to be 1810 nM.
Under `Cc1cc(C)cc(C(=O)N2CCN(C(=O)c3ncn(-c4ccccc4)n3)C(C)(C)C2)c1` [Example 113] stands 76 nM; under `Cc1oc2ccccc2c1C(=O)N1CCN(C(=O)c2ncn(-c3cccc(F)c3)n2)C(C)(C)C1` [Example 5], 131 nM; under `COc1cc(C(=O)N2CCN(C(=O)c3ncn(-c4cccc(Cl)c4)n3)C(C)C2)ccc1C` (stereo not drawn) [Example 277], 507 nM.
For `Cc1cccc(C(=O)N2CCN(C(=O)c3ncn(-c4ccccc4)n3)C(C)(C)C2)c1` [Example 117], the EC50 was 208 nM.
Take `COc1cccc(C(=O)N2CCN(C(=O)c3ncn(-c4cccc(F)c4)n3)C(C)(C)C2)n1` [Example 4]: the EC50 came out at 101 nM.
Turning to `Cc1c(C(=O)N2CCN(C(=O)c3ncn(-c4cccc(Cl)c4)n3)CC2C)oc2ccc(F)cc12` (stereo not drawn) [Example 212], the EC50 is 568 nM.
For the molecule `Cc1cc(C(=O)N2CCN(C(=O)c3ncn(-c4cccc(Cl)c4)n3)C(C)(C)C2)ccc1Cl` [Example 65], the EC50 was 144 nM.
